Laboratory results as given in patent publication US11053204B2, “Pyrimidinyloxy benzene derivatives as herbicides” (FMC Corporation, priority 2015, dated 2021).

How the values were obtained:
Assay type in all cases: in vivo
kochia (Kochia scoparia) = assay: Test C preemergence, plant response rating
[1] = test system: galium (catchweed bedstraw, Galium aparine); assay: Test C preemergence, plant response rating
[2] = test system: johnsongrass (Sorghum halepense); assay: Test C preemergence, plant response rating
[3] = test system: wild mustard (Sinapis arvensis); assay: Test C postemergence, plant response rating; conditions: for Mustard, Wild plant response rating: scale 0 to 100 (0 no effect, 100 complete control)
Method in brief: (§1)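 After sowing in loam–sand blend or silt loam, pots were sprayed preemergence; separately grown 1- to 4-leaf plants were sprayed postemergence. Following 13 to 15 d under greenhouse conditions, injury was rated visually on a 0 to 100 scale.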

[4] = test system: field violet (Viola arvensis); assay: Test C postemergence, plant response rating; conditions: for Field Violet plant response rating: scale 0 to 100 (0 no effect, 100 complete control)
Method in brief: as §1

[5] = test system: geranium, cutleaf (cutleaf geranium, Geranium dissectum); assay: Test C postemergence, plant response rating; conditions: for Geranium, Cutleaf plant response rating: scale 0 to 100 (0 no effect, 100 complete control)
Method in brief: as §1

[6] = test system: field poppy (Papaver rhoeas); assay: Test C postemergence, plant response rating; conditions: for Field Poppy plant response rating: scale 0 to 100 (0 no effect, 100 complete control)
Method in brief: as §1

[7] = test system: nightshade (eastern black nightshade, Solanum ptycanthum); assay: Test C postemergence, plant response rating; conditions: for Nightshade plant response rating: scale 0 to 100 (0 no effect, 100 complete control)
Method in brief: as §1

[8] = test system: Canada thistle (Cirsium arvense); assay: Test C postemergence, plant response rating; conditions: for Canada Thistle plant response rating: scale 0 to 100 (0 no effect, 100 complete control)
Method in brief: as §1

[9] = test system: wild poinsettia (Euphorbia heterophylla); assay: Test C postemergence, plant response rating; conditions: for Poinsettia, Wild plant response rating: scale 0 to 100 (0 no effect, 100 complete control)
Method in brief: as §1

[10] = test system: windgrass (Apera spica-venti); assay: Test C postemergence, plant response rating; conditions: for Windgrass plant response rating: 125 g ai/ha, scale 0 to 100 (0 no effect, 100 complete control)
Method in brief: as §1

[11] = test system: pigweed, palmer (palmer pigweed, Amaranthus palmeri); assay: Test C postemergence, plant response rating; conditions: for Pigweed, Palmer plant response rating: scale 0 to 100 (0 no effect, 100 complete control)
Method in brief: as §1

[12] = test system: speedwell (bird's-eye speedwell, Veronica persica); assay: Test C postemergence, plant response rating; conditions: for Speedwell plant response rating: scale 0 to 100 (0 no effect, 100 complete control)
Method in brief: as §1

[13] = test system: surinam grass (Brachiaria decumbens); assay: Test C postemergence, plant response rating; conditions: for Surinam Grass plant response rating: 125 g ai/ha, scale 0 to 100 (0 no effect, 100 complete control)
Method in brief: as §1

[14] = test system: johnsongrass (Sorghum halepense); assay: Test C postemergence, plant response rating; conditions: for Johnsongrass plant response rating: scale 0 to 100 (0 no effect, 100 complete control)
Method in brief: as §1

[15] = test system: buckwheat, wild (wild buckwheat, Polygonum convolvulus); assay: Test C postemergence, plant response rating; conditions: for Buckwheat, Wild plant response rating: scale 0 to 100 (0 no effect, 100 complete control)
Method in brief: as §1

Compound: O=C(CCCC(F)(F)F)c1c(Oc2ncc(Cl)cn2)cccc1C(F)(F)F [Compound 125]
- Plant response rating, Kochia (kochia (Kochia scoparia); 31 g ai/ha, scale 0 to 100): 60
- Plant response rating, Kochia (kochia (Kochia scoparia); 62 g ai/ha, scale 0 to 100): 90
- Plant response rating, Kochia (kochia (Kochia scoparia); 125 g ai/ha, scale of 0 to 100): 98
- Plant response rating, Galium ([1]; 31 g ai/ha, scale 0 to 100): 5
- Plant response rating, Galium ([1]; 62 g ai/ha, scale 0 to 100): 30
- Plant response rating, Galium ([1]; 125 g ai/ha, scale of 0 to 100): 80
- Plant response rating, Johnsongrass ([2]; 31 g ai/ha, scale 0 to 100): 5
- Plant response rating, Johnsongrass ([2]; 62 g ai/ha, scale 0 to 100): 60
- Plant response rating, Johnsongrass ([2]; 125 g ai/ha, scale of 0 to 100): 75
- Plant response rating, Mustard, Wild ([3]; 16 g ai/ha, scale of 0 to 100): 90
- Plant response rating, Mustard, Wild ([3]; 31 g ai/ha, scale 0 to 100): 95
- Mustard, Wild plant response rating ([3]; 62 g ai/ha): 98
- Mustard, Wild plant response rating ([3]; 125 g ai/ha): 100
- Plant response rating, Field Violet ([4]; 16 g ai/ha, scale of 0 to 100): 90
- Plant response rating, Field Violet ([4]; 31 g ai/ha, scale 0 to 100): 98
- Field Violet plant response rating ([4]; 62 g ai/ha): 98
- Field Violet plant response rating ([4]; 125 g ai/ha): 98
- Plant response rating, Geranium, Cutleaf ([5]; 16 g ai/ha, scale of 0 to 100): 25
- Plant response rating, Geranium, Cutleaf ([5]; 31 g ai/ha, scale 0 to 100): 30
- Geranium, Cutleaf plant response rating ([5]; 62 g ai/ha): 55
- Geranium, Cutleaf plant response rating ([5]; 125 g ai/ha): 55
- Plant response rating, Field Poppy ([6]; 16 g ai/ha, scale of 0 to 100): 90
- Plant response rating, Field Poppy ([6]; 31 g ai/ha, scale 0 to 100): 95
- Field Poppy plant response rating ([6]; 62 g ai/ha): 100
- Field Poppy plant response rating ([6]; 125 g ai/ha): 100
- Plant response rating, Nightshade ([7]; 16 g ai/ha, scale of 0 to 100): 50
- Plant response rating, Nightshade ([7]; 31 g ai/ha, scale 0 to 100): 75
- Nightshade plant response rating ([7]; 62 g ai/ha): 85
- Nightshade plant response rating ([7]; 125 g ai/ha): 90
- Plant response rating, Canada Thistle ([8]; 16 g ai/ha, scale of 0 to 100): 80
- Plant response rating, Canada Thistle ([8]; 31 g ai/ha, scale 0 to 100): 85
- Canada Thistle plant response rating ([8]; 62 g ai/ha): 90
- Canada Thistle plant response rating ([8]; 125 g ai/ha): 90
- Plant response rating, Poinsettia, Wild ([9]; 16 g ai/ha, scale of 0 to 100): 65
- Plant response rating, Poinsettia, Wild ([9]; 31 g ai/ha, scale 0 to 100): 65
- Poinsettia, Wild plant response rating ([9]; 62 g ai/ha): 75
- Poinsettia, Wild plant response rating ([9]; 125 g ai/ha): 85
- Plant response rating, Windgrass ([10]; 16 g ai/ha, scale of 0 to 100): 10
- Plant response rating, Windgrass ([10]; 31 g ai/ha, scale 0 to 100): 15
- Windgrass plant response rating [10]: 35
- Plant response rating, Pigweed, Palmer ([11]; 16 g ai/ha, scale of 0 to 100): 40
- Plant response rating, Pigweed, Palmer ([11]; 31 g ai/ha, scale 0 to 100): 85
- Pigweed, Palmer plant response rating ([11]; 62 g ai/ha): 80
- Pigweed, Palmer plant response rating ([11]; 125 g ai/ha): 85
- Plant response rating, Speedwell ([12]; 16 g ai/ha, scale of 0 to 100): 55
- Plant response rating, Speedwell ([12]; 31 g ai/ha, scale 0 to 100): 70
- Speedwell plant response rating ([12]; 62 g ai/ha): 98
- Speedwell plant response rating ([12]; 125 g ai/ha): 98
- Plant response rating, Surinam Grass ([13]; 16 g ai/ha, scale of 0 to 100): 5
- Plant response rating, Surinam Grass ([13]; 31 g ai/ha, scale 0 to 100): 10
- Surinam Grass plant response rating [13]: 20
- Plant response rating, Johnsongrass ([14]; 16 g ai/ha, scale of 0 to 100): 5
- Plant response rating, Johnsongrass ([14]; 31 g ai/ha, scale 0 to 100): 5
- Johnsongrass plant response rating ([14]; 62 g ai/ha): 10
- Johnsongrass plant response rating ([14]; 125 g ai/ha): 25
- Plant response rating, Buckwheat, Wild ([15]; 16 g ai/ha, scale of 0 to 100): 70
- Plant response rating, Buckwheat, Wild ([15]; 31 g ai/ha, scale 0 to 100): 65
- Buckwheat, Wild plant response rating ([15]; 62 g ai/ha): 75
- Buckwheat, Wild plant response rating ([15]; 125 g ai/ha): 98

Compound: CCCCC(=O)c1c(Oc2ncc(Cl)cn2)cccc1C(F)(F)F [Compound 130]
- Plant response rating, Kochia (kochia (Kochia scoparia); 31 g ai/ha, scale 0 to 100): 65
- Plant response rating, Kochia (kochia (Kochia scoparia); 62 g ai/ha, scale 0 to 100): 65
- Plant response rating, Kochia (kochia (Kochia scoparia); 125 g ai/ha, scale of 0 to 100): 98
- Plant response rating, Galium ([1]; 31 g ai/ha, scale 0 to 100): 50
- Plant response rating, Galium ([1]; 62 g ai/ha, scale 0 to 100): 90
- Plant response rating, Galium ([1]; 125 g ai/ha, scale of 0 to 100): 90
- Plant response rating, Johnsongrass ([2]; 31 g ai/ha, scale 0 to 100): 10
- Plant response rating, Johnsongrass ([2]; 62 g ai/ha, scale 0 to 100): 70
- Plant response rating, Johnsongrass ([2]; 125 g ai/ha, scale of 0 to 100): 85
- Plant response rating, Mustard, Wild ([3]; 16 g ai/ha, scale of 0 to 100): 98
- Plant response rating, Mustard, Wild ([3]; 31 g ai/ha, scale 0 to 100): 90
- Mustard, Wild plant response rating ([3]; 62 g ai/ha): 100
- Mustard, Wild plant response rating ([3]; 125 g ai/ha): 100
- Plant response rating, Field Violet ([4]; 16 g ai/ha, scale of 0 to 100): 80
- Plant response rating, Field Violet ([4]; 31 g ai/ha, scale 0 to 100): 85
- Field Violet plant response rating ([4]; 62 g ai/ha): 95
- Field Violet plant response rating ([4]; 125 g ai/ha): 100
- Plant response rating, Geranium, Cutleaf ([5]; 16 g ai/ha, scale of 0 to 100): 25
- Plant response rating, Geranium, Cutleaf ([5]; 31 g ai/ha, scale 0 to 100): 35
- Geranium, Cutleaf plant response rating ([5]; 62 g ai/ha): 45
- Geranium, Cutleaf plant response rating ([5]; 125 g ai/ha): 60
- Plant response rating, Field Poppy ([6]; 16 g ai/ha, scale of 0 to 100): 100
- Plant response rating, Field Poppy ([6]; 31 g ai/ha, scale 0 to 100): 100
- Field Poppy plant response rating ([6]; 62 g ai/ha): 100
- Field Poppy plant response rating ([6]; 125 g ai/ha): 100
- Plant response rating, Nightshade ([7]; 16 g ai/ha, scale of 0 to 100): 75
- Plant response rating, Nightshade ([7]; 31 g ai/ha, scale 0 to 100): 80
- Nightshade plant response rating ([7]; 62 g ai/ha): 85
- Nightshade plant response rating ([7]; 125 g ai/ha): 90
- Plant response rating, Canada Thistle ([8]; 16 g ai/ha, scale of 0 to 100): 75
- Plant response rating, Canada Thistle ([8]; 31 g ai/ha, scale 0 to 100): 75
- Canada Thistle plant response rating ([8]; 62 g ai/ha): 98
- Canada Thistle plant response rating ([8]; 125 g ai/ha): 98
- Plant response rating, Poinsettia, Wild ([9]; 16 g ai/ha, scale of 0 to 100): 55
- Plant response rating, Poinsettia, Wild ([9]; 31 g ai/ha, scale 0 to 100): 70
- Poinsettia, Wild plant response rating ([9]; 62 g ai/ha): 60
- Poinsettia, Wild plant response rating ([9]; 125 g ai/ha): 75
- Plant response rating, Windgrass ([10]; 16 g ai/ha, scale of 0 to 100): 10
- Plant response rating, Windgrass ([10]; 31 g ai/ha, scale 0 to 100): 15
- Windgrass plant response rating [10]: 35
- Plant response rating, Pigweed, Palmer ([11]; 16 g ai/ha, scale of 0 to 100): 35
- Plant response rating, Pigweed, Palmer ([11]; 31 g ai/ha, scale 0 to 100): 65
- Pigweed, Palmer plant response rating ([11]; 62 g ai/ha): 45
- Pigweed, Palmer plant response rating ([11]; 125 g ai/ha): 65
- Plant response rating, Speedwell ([12]; 16 g ai/ha, scale of 0 to 100): 80
- Plant response rating, Speedwell ([12]; 31 g ai/ha, scale 0 to 100): 85
- Speedwell plant response rating ([12]; 62 g ai/ha): 98
- Speedwell plant response rating ([12]; 125 g ai/ha): 98
- Plant response rating, Surinam Grass ([13]; 16 g ai/ha, scale of 0 to 100): 10
- Plant response rating, Surinam Grass ([13]; 31 g ai/ha, scale 0 to 100): 10
- Surinam Grass plant response rating [13]: 20
- Plant response rating, Johnsongrass ([14]; 16 g ai/ha, scale of 0 to 100): 5
- Plant response rating, Johnsongrass ([14]; 31 g ai/ha, scale 0 to 100): 5
- Johnsongrass plant response rating ([14]; 62 g ai/ha): 10
- Johnsongrass plant response rating ([14]; 125 g ai/ha): 15
- Plant response rating, Buckwheat, Wild ([15]; 16 g ai/ha, scale of 0 to 100): 35
- Plant response rating, Buckwheat, Wild ([15]; 31 g ai/ha, scale 0 to 100): 90
- Buckwheat, Wild plant response rating ([15]; 62 g ai/ha): 75
- Buckwheat, Wild plant response rating ([15]; 125 g ai/ha): 80
